Like-named read-outs stand apart in the source and are kept apart here.
Tests used:
Assay in all cases: Kinase selectivity, scanMAX Kinase assay panel (DiscoverX), % control at 1 uM
Assay type in all cases: binding
[1] = target: T1, scanMAX Kinase assay panel (Homo sapiens, UniProt O14733); settings: MKK7; 1 uM; read-out: Percent Control (%)
T1 construct: purchased DiscoverX
T1 sequence (O14733 1-419): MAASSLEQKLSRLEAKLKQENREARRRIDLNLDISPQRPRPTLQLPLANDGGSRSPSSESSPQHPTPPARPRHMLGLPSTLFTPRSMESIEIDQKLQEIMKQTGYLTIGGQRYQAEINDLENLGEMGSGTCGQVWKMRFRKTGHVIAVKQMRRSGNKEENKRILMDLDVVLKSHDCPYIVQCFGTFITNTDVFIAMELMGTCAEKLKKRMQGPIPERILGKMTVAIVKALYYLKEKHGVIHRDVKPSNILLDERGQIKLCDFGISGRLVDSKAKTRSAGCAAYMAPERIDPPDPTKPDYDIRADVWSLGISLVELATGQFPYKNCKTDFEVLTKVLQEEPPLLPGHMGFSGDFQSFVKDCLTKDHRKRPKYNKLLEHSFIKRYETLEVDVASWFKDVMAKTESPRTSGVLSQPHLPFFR
Summary of the method: (§1)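 Activity was called for kinases showing % control under 35, calculated from compound signal relative to positive and negative controls. Each compound screened at 1 uM against the DiscoverX scanMAX panel.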

[2] = target: T2, scanMAX Kinase assay panel (Homo sapiens, UniProt Q04771); settings: ACVR1; 1 uM; read-out: Percent Control (%)
T2 construct: purchased DiscoverX
T2 sequence (Q04771 21-509): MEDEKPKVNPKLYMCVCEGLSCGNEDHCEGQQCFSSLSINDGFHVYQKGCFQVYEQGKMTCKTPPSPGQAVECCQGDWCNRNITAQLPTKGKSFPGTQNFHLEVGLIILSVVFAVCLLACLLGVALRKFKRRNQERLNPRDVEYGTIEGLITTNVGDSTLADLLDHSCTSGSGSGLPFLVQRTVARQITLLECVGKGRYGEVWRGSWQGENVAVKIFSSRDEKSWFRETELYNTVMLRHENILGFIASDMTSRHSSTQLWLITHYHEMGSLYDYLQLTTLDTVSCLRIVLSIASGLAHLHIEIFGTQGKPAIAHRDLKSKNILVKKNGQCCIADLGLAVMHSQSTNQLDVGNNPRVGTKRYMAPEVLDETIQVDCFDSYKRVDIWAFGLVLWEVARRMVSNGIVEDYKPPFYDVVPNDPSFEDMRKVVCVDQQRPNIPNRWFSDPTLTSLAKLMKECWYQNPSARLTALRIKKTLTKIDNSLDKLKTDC
Summary of the method: as §1

[3] = target: T3, scanMAX Kinase assay panel (Homo sapiens, UniProt Q9Y6M4); settings: CSNK1G3; 1 uM; read-out: Percent Control (%)
T3 construct: purchased DiscoverX
Summary of the method: as §1

[4] = target: T4, scanMAX Kinase assay panel (Homo sapiens, UniProt P00519); settings: 1 uM, read-out: Percent Control (%)
T4 construct: purchased DiscoverX
Summary of the method: as §1

[5] = target: T5, scanMAX Kinase assay panel (Homo sapiens, UniProt P57078); settings: RIPK4; 1 uM; read-out: Percent Control (%)
T5 construct: purchased DiscoverX
T5 sequence (P57078 1-832): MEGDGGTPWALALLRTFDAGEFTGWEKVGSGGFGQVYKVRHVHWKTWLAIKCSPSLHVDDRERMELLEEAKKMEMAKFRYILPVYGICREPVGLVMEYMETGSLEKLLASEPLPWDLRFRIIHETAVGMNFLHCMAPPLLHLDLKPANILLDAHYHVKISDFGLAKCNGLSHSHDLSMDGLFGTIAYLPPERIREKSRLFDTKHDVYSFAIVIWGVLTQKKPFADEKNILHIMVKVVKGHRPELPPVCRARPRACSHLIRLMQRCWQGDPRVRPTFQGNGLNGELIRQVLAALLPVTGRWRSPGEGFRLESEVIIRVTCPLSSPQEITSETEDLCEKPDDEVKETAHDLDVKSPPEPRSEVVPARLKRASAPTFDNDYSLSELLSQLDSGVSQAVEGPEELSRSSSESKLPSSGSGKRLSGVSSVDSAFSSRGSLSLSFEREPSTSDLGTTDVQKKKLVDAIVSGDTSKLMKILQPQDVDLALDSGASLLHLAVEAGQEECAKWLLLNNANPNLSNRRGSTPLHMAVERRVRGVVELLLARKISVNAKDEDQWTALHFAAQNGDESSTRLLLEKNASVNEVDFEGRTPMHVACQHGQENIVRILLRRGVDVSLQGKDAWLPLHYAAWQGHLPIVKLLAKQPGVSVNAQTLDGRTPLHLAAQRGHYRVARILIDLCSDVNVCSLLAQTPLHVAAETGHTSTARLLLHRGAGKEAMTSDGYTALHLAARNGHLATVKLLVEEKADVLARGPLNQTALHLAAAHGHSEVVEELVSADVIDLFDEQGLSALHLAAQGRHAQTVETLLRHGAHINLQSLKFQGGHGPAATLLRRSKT
Summary of the method: as §1

[6] = target: T6, scanMAX Kinase assay panel (Homo sapiens, UniProt P32298); settings: GRK4; 1 uM; read-out: Percent Control (%)
T6 construct: purchased DiscoverX
Summary of the method: as §1

[7] = target: T7, scanMAX Kinase assay panel (Homo sapiens, UniProt Q8N4C8); settings: MINK; 1 uM; read-out: Percent Control (%)
T7 construct: purchased DiscoverX
Summary of the method: as §1

[8] = target: T8, scanMAX Kinase assay panel (Homo sapiens, UniProt P11802); settings: 1 uM, read-out: Percent Control (%)
T8 construct: purchased DiscoverX
Summary of the method: as §1

T4 sequence (P00519 whole entry): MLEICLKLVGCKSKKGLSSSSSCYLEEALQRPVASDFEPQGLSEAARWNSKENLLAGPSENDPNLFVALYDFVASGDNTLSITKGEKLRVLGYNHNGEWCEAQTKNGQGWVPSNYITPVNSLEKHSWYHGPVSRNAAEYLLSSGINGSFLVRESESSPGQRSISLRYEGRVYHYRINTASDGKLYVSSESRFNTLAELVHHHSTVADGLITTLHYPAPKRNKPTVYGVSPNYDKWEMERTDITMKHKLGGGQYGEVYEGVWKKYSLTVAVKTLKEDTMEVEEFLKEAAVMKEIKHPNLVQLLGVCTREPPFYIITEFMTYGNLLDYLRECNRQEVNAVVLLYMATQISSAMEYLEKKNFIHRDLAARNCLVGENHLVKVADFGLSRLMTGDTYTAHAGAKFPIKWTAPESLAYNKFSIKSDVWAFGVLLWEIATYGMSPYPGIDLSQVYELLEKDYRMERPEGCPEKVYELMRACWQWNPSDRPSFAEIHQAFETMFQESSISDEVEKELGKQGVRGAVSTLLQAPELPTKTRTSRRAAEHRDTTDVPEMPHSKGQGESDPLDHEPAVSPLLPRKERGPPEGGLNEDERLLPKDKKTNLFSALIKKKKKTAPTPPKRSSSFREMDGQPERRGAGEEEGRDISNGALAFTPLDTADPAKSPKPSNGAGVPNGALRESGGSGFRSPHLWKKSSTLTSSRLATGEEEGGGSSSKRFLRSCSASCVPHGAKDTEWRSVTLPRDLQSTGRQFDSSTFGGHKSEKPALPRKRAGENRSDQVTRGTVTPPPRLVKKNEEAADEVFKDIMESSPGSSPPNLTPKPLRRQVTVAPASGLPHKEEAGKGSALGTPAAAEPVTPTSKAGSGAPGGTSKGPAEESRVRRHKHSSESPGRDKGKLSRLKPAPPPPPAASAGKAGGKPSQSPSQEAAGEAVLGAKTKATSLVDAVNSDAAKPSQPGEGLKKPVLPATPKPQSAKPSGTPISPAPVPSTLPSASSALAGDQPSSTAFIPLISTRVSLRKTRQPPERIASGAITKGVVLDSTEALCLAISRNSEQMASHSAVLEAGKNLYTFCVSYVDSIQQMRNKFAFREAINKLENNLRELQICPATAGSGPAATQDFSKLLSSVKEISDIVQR
T6 sequence (P32298 whole entry): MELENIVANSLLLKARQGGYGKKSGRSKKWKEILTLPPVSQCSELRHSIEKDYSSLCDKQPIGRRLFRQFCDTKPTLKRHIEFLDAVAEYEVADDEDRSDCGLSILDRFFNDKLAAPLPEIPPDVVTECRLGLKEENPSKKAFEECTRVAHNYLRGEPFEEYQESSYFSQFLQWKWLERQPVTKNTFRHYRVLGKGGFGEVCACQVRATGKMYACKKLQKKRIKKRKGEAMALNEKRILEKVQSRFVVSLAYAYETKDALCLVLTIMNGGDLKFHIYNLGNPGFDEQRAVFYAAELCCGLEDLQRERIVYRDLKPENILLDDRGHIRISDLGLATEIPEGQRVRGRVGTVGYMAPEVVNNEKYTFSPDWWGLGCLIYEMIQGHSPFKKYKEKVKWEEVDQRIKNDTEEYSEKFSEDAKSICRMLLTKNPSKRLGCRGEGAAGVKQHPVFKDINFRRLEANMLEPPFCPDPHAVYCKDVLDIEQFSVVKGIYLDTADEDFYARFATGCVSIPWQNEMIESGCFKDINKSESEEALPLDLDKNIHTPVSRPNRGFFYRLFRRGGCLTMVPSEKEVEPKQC
T3 sequence (Q9Y6M4 whole entry): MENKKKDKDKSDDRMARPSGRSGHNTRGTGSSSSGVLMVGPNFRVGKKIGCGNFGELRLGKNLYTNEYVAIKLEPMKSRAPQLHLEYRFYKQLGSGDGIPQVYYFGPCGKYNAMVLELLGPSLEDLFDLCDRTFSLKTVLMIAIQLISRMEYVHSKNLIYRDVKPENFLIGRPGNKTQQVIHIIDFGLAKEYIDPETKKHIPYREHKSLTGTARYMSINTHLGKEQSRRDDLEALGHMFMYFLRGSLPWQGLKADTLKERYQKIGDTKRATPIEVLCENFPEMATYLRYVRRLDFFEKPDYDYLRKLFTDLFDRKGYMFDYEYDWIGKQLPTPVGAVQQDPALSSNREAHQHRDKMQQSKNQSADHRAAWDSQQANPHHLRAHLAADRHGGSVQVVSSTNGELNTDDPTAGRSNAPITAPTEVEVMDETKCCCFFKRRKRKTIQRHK
T8 sequence (P11802 whole entry): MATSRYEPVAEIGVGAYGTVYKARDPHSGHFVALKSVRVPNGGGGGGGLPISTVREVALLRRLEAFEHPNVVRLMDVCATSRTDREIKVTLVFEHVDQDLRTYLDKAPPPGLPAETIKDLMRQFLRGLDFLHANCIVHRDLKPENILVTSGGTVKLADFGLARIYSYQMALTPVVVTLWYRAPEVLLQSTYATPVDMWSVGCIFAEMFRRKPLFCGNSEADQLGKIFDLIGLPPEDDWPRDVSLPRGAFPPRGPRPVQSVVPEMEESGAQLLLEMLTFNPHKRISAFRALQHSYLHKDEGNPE
T7 sequence (Q8N4C8 whole entry): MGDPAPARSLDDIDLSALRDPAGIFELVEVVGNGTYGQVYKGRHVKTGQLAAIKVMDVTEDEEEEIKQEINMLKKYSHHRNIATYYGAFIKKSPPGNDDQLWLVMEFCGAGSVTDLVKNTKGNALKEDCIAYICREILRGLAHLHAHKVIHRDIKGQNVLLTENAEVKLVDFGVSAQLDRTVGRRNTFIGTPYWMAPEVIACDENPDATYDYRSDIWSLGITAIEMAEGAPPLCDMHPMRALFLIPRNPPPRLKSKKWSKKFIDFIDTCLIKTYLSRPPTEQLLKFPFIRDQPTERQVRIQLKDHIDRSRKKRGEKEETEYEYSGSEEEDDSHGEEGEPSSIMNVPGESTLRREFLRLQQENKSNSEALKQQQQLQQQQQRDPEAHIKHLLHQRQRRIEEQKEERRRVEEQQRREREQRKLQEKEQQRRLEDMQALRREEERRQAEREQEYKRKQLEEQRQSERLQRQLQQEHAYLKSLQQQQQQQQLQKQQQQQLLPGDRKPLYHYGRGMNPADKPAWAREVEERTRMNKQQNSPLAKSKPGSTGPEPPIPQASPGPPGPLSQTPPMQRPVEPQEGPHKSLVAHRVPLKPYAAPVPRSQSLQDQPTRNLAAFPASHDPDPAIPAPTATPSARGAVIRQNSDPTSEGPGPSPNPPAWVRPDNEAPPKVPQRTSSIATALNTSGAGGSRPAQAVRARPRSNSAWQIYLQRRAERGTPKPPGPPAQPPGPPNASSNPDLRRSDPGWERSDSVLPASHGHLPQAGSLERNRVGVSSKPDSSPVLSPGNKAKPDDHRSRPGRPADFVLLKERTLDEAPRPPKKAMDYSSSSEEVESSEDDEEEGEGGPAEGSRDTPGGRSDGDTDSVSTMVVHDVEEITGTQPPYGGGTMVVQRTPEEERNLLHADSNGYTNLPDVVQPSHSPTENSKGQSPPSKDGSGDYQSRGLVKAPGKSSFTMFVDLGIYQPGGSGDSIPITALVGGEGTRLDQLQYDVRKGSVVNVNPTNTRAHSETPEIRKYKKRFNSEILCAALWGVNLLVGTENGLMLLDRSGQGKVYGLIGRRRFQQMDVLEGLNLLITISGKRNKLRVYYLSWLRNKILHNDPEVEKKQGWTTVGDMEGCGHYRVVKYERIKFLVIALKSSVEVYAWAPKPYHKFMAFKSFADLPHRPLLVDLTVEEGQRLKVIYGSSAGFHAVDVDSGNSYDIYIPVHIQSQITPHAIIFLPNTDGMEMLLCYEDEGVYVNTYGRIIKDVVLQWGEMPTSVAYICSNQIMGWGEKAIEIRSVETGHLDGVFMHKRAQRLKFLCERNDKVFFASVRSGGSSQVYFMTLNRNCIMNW

Structure (SMILES)	remaining binding at 1 µM [1]	remaining binding at 1 µM [2]	remaining binding at 1 µM [3]	remaining binding at 1 µM ([4]; ABL1-nonphosphorylated)	remaining binding at 1 µM ([4]; ABL1-phosphorylated)	remaining binding at 1 µM [5]	remaining binding at 1 µM [6]	remaining binding at 1 µM [7]	remaining binding at 1 µM ([8]; CDK4-cyclinD1)	remaining binding at 1 µM ([8]; CDK4-cyclinD3)	remaining binding at 1 µM ([8]; CDK4)
Cc1ccc(NC(=O)C2(C(=O)Nc3ccc(F)cc3)CC2)cc1C#Cc1cnc2c(Nc3cnn(C(C)C)c3)cccn12 [Example 78]	99%	100%	100%	4%	56%	100%	100%	87%	100%	100%	100%
Cc1cn(-c2cc(NC(=O)c3ccc(C)c(C#Cc4cnc5c(Nc6cnn(C)c6)cccn45)c3)cc(C(F)(F)F)c2)cn1 [Example 12, 4-methyl-N-(3-(4-methyl-1H-imidazol-1-yl)-5-(trifluoromethyl)phenyl)-3-((8-((1-methyl-1H-pyrazol-4-yl)amino)imidazo[1,2-a]pyridin-3-yl)ethynyl)benzamide]	100%	100%	84%	1%	6%	100%	100%	44%	100%	100%	100%
Cc1ccc(C(=O)Nc2ccc(CN3CCN(C)CC3)c(C(F)(F)F)c2)cc1C#Cc1cnc2c(Nc3cnn(C)c3)cccn12 [Example 1, 4-methyl-3-((8-((1-methyl-1H-pyrazol-4-yl)amino)imidazo[1,2-a]pyridin-3-yl)ethynyl)-N-(4-((4-methylpiperazin-1-yl)methyl)-3-(trifluoromethyl)phenyl)benzamide]	90%	100%	100%	1%	0%	13%	100%	2%	84%	78%	83%

Reference: patent publication US10870647B2, “Imidazopyridine derivative, method for preparing same, and pharmaceutical composition containing same as active ingredient for preventing or treating cancer” (DAEGU-GYEONGBUK MEDICAL INNOVATION FOUNDATION, priority 2016, dated 2020)
